In US12246022B2, “Compositions and methods for treating, preventing or reversing age associated inflammation and disorders” (BROWN UNIVERSITY, priority 2019, dated 2025):
Read-outs that look alike come from different tables or passages of the source.

What was measured:
human LINE-1 [1] = assay: Human LINE-1 retrotransposition assay, related experiments with islatravir (pYX017, HeLa cells, Tables 12 and 13); type: cell-based
Experimental: In related experiments, islatravir and other compounds were tested for inhibition of retrotransposition activity of human LINE-1 in HeLa cells according to the following procedure.
HeLa cervical cancer cells were cultivated at 37° C. in a humidified 5% CO2 incubator in Dulbecco's Modified Eagle's Medium (DMEM)—high glucose, with 4500 mg/L glucose, L-glutamine, sodium pyruvate and sodium bicarbonate (Sigma), supplemented with 10% of heat inactivated fetal bovine serum (Thermo Fisher).
Assays were performed using reporter plasmid pYX017 as described (Xie, et al., 2011) with several modifications. The reporter assay was performed in 96-well white optical bottom plates. HeLa cells were seeded in wells 24 h prior to transfection and compound treatment so that cells were approximately 30% confluent on the day of transfection. Different cell plating densities were tested and a density of 2×10^3 cells was determined to be optimal.
Compounds were resuspended in DMSO. Serial dilutions (1:3) were prepared in DMSO. Medium containing different concentrations of the compounds were prepared by adding 2 μl of the compound dilution to 1 ml of the culture medium. The final concentration of DMSO in the medium was 0.2%.
FuGENE® HD transfection reagent (Promega, E2311, Lot 382574 and Lot 397842) was used to transfect the plasmids into the cells. The transfection reagent: DNA mixture was prepared in OpiMEM (Thermo Fisher) according to manufacturer's instructions. Different ratios of transfection reagent to DNA were tested and a ratio of 3:1 was determined to be optimal. Culture medium was removed from the cells and discarded. The transfection reagent: DNA mixture (5 μl) was mixed with the compound containing medium (100 μl/well) and this was added onto the cells of each well. Cells were incubated at 37° C./5% CO2 for different incubation time. A 72 h incubation time was determined to be optimal.
Luciferase reporter activity was quantified with the Dual-Luciferase® Reporter Assay System (Promega) according to manufacturer's instructions for multiwell plates except that cells were lysed directly on the multiwell plate with 30 μl of the passive lysis buffer (PLB) for 20 min at room temperature, with gentle shaking to ensure complete cell lysis.
Firefly and Renilla luciferase signals were measured using a SpectraMax i3x Multi-Mode Microplate Reader. Integration times of 100 ms and 10 ms were used to measure the Firefly and Renilla signals respectively. Relative L1 activity is calculated as Firefly/Renilla *1000 or Firefly/Renilla *10,000. Dose response inhibition data were fit to a four parameter logistic equation using non-linear regression (using Graphpad Prism 8), to determine IC50 values for each inhibitor.

[2] = Comparative studies: intracellular drug concentration relative to LINE-1 IC50 and huCSF/Plasma ratio; conditions: Table 13 Comparative Studies
[3] = Table 13 Comparative Studies; cited from earlier work
mouse LINE-1 = assay: Mouse LINE-1 retrotransposition assay (dual luciferase pYX016 reporter, HeLa cells); type: cell-based
Experimental: Elvucitabine was obtained by custom synthesis. […] HeLa cervical cancer cells were cultivated at 37° C. in a humidified 5% CO2 incubator in Dulbecco's Modified Eagle's Medium (DMEM)-high glucose, with 4500 mg/L glucose, L-glutamine, sodium pyruvate and sodium bicarbonate (Sigma), supplemented with 10% of heat inactivated fetal bovine serum (Thermo Fisher). Assays were performed as described in Xie et al., 2011^151 with several modifications. The reporter assay was performed in 96 well white Optical bottom plates. 6000 HeLa cells were seeded in each well 24 hours prior transfection and compound treatment. All compounds were resuspended in DMSO. Stock solution concentrations varied from 50 mM to 1.25 mM depending of the solubility of the compound. Serial dilutions (1:3) were prepared in DMSO. Ten different concentrations of each compound were tested in triplicate. Medium containing different concentrations of the compounds were prepared by adding 2 μL of the compound dilution to 1 mL of the culture medium. The final concentration of DMSO in the medium was 0.2%. FuGENE® HD transfection reagent (Promega) was used to transfect the plasmid pYX016 into the cells. The transfection mix was prepared in OpiMEM (Thermo Fisher) using a reagent to DNA ratio of 3.5:1 according to manufacturer's instructions. Culture medium was removed from the cells and discarded. The transfection mix (5 μL) was mixed with the compound containing medium (100 μL/well) and this was added onto the cells of each well. Cells were incubated for 48H at 37° C./5% CO2. Luciferase reporter activity was quantified with the Dual-Luciferase® Reporter Assay System (Promega) according to manufacturer's instructions for multiwell plates with the following modification: Cells were lysed directly on the multiwell plate with 30 μL of the passive lysis buffer (PLB) for 20 min at room temperature, with gentle shaking to ensure complete cell lysis (instead of 20 μL of PLB for 15 min). Firefly and Renilla luciferase signals were measured using a SpectraMax i3x Multi-Mode Microplate Reader. […] Relative L1 activity was calculated as Firefly/Renilla *10,000. […] The experiment was performed twice, independently.

human LINE-1 [4] = assay: Human LINE-1 retrotransposition assay (dual luciferase pYX017 reporter, HeLa cells, Table 11); type: cell-based
Experimental: Assays were performed as described in Xie et al., 2011^151 with several modifications. The reporter assay was performed in 96 well white Optical bottom plates. 6000 HeLa cells were seeded in each well 24 hours prior transfection and compound treatment. All compounds were resuspended in DMSO. Stock solution concentrations varied from 50 mM to 1.25 mM depending of the solubility of the compound. Serial dilutions (1:3) were prepared in DMSO. Ten different concentrations of each compound were tested in triplicate. Medium containing different concentrations of the compounds were prepared by adding 2 μL of the compound dilution to 1 mL of the culture medium. The final concentration of DMSO in the medium was 0.2%. FuGENE® HD transfection reagent (Promega) was used to transfect the plasmid pYX016 into the cells. The transfection mix was prepared in OpiMEM (Thermo Fisher) using a reagent to DNA ratio of 3.5:1 according to manufacturer's instructions. Culture medium was removed from the cells and discarded. The transfection mix (5 μL) was mixed with the compound containing medium (100 μL/well) and this was added onto the cells of each well. Cells were incubated for 48H at 37° C./5% CO2. Luciferase reporter activity was quantified with the Dual-Luciferase® Reporter Assay System (Promega) according to manufacturer's instructions for multiwell plates with the following modification: Cells were lysed directly on the multiwell plate with 30 μL of the passive lysis buffer (PLB) for 20 min at room temperature, with gentle shaking to ensure complete cell lysis (instead of 20 μL of PLB for 15 min). Firefly and Renilla luciferase signals were measured using a SpectraMax i3x Multi-Mode Microplate Reader. […] Relative L1 activity was calculated as Firefly/Renilla *10,000. […] The experiment was performed twice, independently. […] Because the human construct yields a lower signal, compounds were incubated with cells for 72 hours instead of 48 hours, and cells were seeded at a density of 2000/well instead of 6000/well. In addition, the transfection reagent to DNA ratio was 2:1 instead of 3.5:1.

human LINE-1 [5] = assay: Islatravir Inhibitory Quotient (IQ) estimate for human LINE-1 in PBMC and brain; conditions: PBMC, intracellular EFdA-TP, used for IQ
HIV WT = conditions: read-out: IC50 for HIV (intracellular EFdA-TP); cited from earlier work
[6] = in vivo; cited from earlier work
[7] = Homo sapiens, HeLa, Table 13 Comparative Studies, read-out: Human Line-1 IC50
[8] = pYX016, 48 H post-transfection, read-out: Mouse L1 activity inhibition IC50, Exp. 1
[9] = pYX016, 48 H post-transfection, read-out: Mouse L1 activity inhibition IC50, Exp. 2
[10] = pYX016, 48 H, n = 2, read-out: Mouse L1 activity inhibition IC50, Average
[11] = Homo sapiens, HeLa cells, pYX017, 72 h, n = 3, read-out: Human LINE-1 IC50, Average
[12] = Homo sapiens, HeLa cells, pYX017, 72 h, read-out: Human LINE-1 IC50, Exp.1
[13] = Homo sapiens, HeLa cells, pYX017, 72 h, read-out: Human LINE-1 IC50, Exp.2
[14] = Homo sapiens, HeLa cells, pYX017, 72 h, read-out: Human LINE-1 IC50, Exp. 3

SMILES | IC50 (mouse LINE-1; [8]) | IC50 (mouse LINE-1; [9]) | IC50 (mouse LINE-1; [10]) | IC50 (human LINE-1 [1]; [11]) | IC50 (human LINE-1 [1]; [12]) | IC50 (human LINE-1 [1]; [13]) | IC50 (human LINE-1 [1]; [14]) | also measured
Nc1nc(NC2CC2)c2ncn([C@H]3C=C[C@@H](CO)C3)c2n1 [Abacavir (ABC), Abacavir] |  |  |  |  |  |  |  | IC50 (human LINE-1 [1]; [7]): 17100 nM; Human Line-1 Intracellular drug conc. (% of IC-50 conc.) [2]: 106%; huCSF/Plasma [3]: 0.67
Nc1ccn([C@H]2CO[C@@H](CO)S2)c(=O)n1 [Apricitabine] | 4440 nM | 3820 nM | 4130 nM |  |  |  |  | 
O=C(NCc1c(F)cc(F)cc1F)c1cn2c(c(O)c1=O)C(=O)N1[C@H]3CC[C@H](C3)O[C@@H]1C2 [Bictegravir] |  |  |  | > 12400 nM | 12400 nM | > 50000 nM |  | 
C#C[C@@]1(CO)C=C[C@H](n2cc(C)c(=O)[nH]c2=O)O1 [Censavudine] | 118 nM | 105 nM | 112 nM | 100 nM | 130 nM | 120 nM | 50 nM | IC50 (human LINE-1 [4]; pYX017, 72 H post-transfection, read-out: Human L1 activity inhibition IC50, Exp. 1): 53 nM; IC50 (human LINE-1 [4]; pYX017, 72 H post-transfection, read-out: Human L1 activity inhibition IC50, Exp. 2): 92 nM; IC50 (human LINE-1 [4]; pYX017, 72 H, n = 2, read-out: Human L1 activity inhibition IC50, Average): 72 nM; IC50 (human LINE-1 [4]; read-out: human L1 inhibition IC50): ~100 nM; IC50 (mouse LINE-1; read-out: mouse L1 inhibition IC50): ~100 nM
C[C@@H]1CCO[C@H]2Cn3cc(C(=O)NCc4ccc(F)cc4F)c(=O)c(O)c3C(=O)N12 [Dolutegravir sodium] |  |  |  | > 9380 nM | 9380 nM |  | > 20000 nM | 
C#C[C@]1(COP(=O)(O)OP(=O)(O)OP(=O)(O)O)O[C@@H](n2cnc3c(N)nc(F)nc32)C[C@@H]1O [EFdA-TP] |  |  |  |  |  |  |  | EC50 (human LINE-1 [5]): 316 nM; IC50 (HIV WT): 49 nM; intracellular T-half in human PBMC [6]: 78.5 to 128 h
O=C1Nc2ccc(Cl)cc2[C@@](C#CC2CC2)(C(F)(F)F)O1 [Efavirenz] |  |  |  | > 250 nM | > 50000 nM | > 250 nM |  | 
Cc1ccnc2c1NC(=O)c1cccnc1N2C1CC1 [Nevirapine] |  |  |  | > 50000 nM | > 50000 nM | > 50000 nM |  | 
Cc1nnc(C(=O)NC(C)(C)c2nc(C(=O)NCc3ccc(F)cc3)c(O)c(=O)n2C)o1 [Raltegravir potassium] |  |  |  | > 9860 nM | 9860 nM | > 50000 nM | 49300 nM | 
Cc1cc(/C=C/C#N)cc(C)c1Nc1ccnc(Nc2ccc(C#N)cc2)n1 [Rilpivirine] |  |  |  | > 15100 nM | > 50000 nM | 15100 nM | 45500 nM | 
Cc1cn([C@H]2C=C[C@@H](CO)O2)c(=O)[nH]c1=O [Stavudine] | 1590 nM | 1860 nM | 1720 nM |  |  |  |  | IC50 (human LINE-1 [1]; [7]): 750 nM; Human Line-1 Intracellular drug conc. (% of IC-50 conc.) [2]: 63%; huCSF/Plasma [3]: 0.2
CC(C)OC(=O)OCOP(=O)(CO[C@H](C)Cn1cnc2c(N)ncnc21)OCOC(=O)OC(C)C [Tenofovir Disiproxil, tenofovir disoproxil] | 157 nM | 151 nM | 154 nM |  |  |  |  | IC50 (human LINE-1 [1]; [7]): 200 nM
C[C@H](Cn1cnc2c(N)ncnc21)OCP(=O)(O)O [Tenofovir] | 3470 nM | 4020 nM | 3750 nM |  |  |  |  | IC50 (human LINE-1 [1]; Table 13 Comparative Studies, read-out: Human Line-1 IC50): 2770 nM
Cc1cn([C@H]2C[C@H](N=[N+]=[N-])[C@@H](CO)O2)c(=O)[nH]c1=O [Zidovudine] |  |  |  | 810 nM | 410 nM | 340 nM | 1680 nM | 
